Here are results for 1 compound from publication PMC8171091, “Tanshinone I, a new EZH2 inhibitor restricts normal and malignant hematopoiesis through upregulation of MMP9 and ABCG2” (Theranostics, 2021).

The target of experiment [1] is EZH2 (zEZH2) (Danio rerio, UniProt Q08BS4). Description: SPR (Biacore T200), EZH2 immobilized on CM5 chip. It is filed as binding.
Experiment [2] concerns the target EED (hEED) (Homo sapiens, UniProt O75530). Description: SPR (Biacore T200), EED immobilized on CM5 chip. The format is binding.
In experiment [3] the target is T1, EZH2 (wild type PRC2 complex) (Homo sapiens, UniProt Q15910).
T1 construct: wild type PRC2 complex (31387, Active Motif); with PRC2 complex (EED, SUZ12)
The experiment can be described thus: in vitro methyltransferase assay with recombinant PRC2 and histone H3.[…], western blot readout. It is filed as biochemical.

pKd: −log10 of the molar value.

Sequence of EZH2 (zEZH2) (Q08BS4 whole entry): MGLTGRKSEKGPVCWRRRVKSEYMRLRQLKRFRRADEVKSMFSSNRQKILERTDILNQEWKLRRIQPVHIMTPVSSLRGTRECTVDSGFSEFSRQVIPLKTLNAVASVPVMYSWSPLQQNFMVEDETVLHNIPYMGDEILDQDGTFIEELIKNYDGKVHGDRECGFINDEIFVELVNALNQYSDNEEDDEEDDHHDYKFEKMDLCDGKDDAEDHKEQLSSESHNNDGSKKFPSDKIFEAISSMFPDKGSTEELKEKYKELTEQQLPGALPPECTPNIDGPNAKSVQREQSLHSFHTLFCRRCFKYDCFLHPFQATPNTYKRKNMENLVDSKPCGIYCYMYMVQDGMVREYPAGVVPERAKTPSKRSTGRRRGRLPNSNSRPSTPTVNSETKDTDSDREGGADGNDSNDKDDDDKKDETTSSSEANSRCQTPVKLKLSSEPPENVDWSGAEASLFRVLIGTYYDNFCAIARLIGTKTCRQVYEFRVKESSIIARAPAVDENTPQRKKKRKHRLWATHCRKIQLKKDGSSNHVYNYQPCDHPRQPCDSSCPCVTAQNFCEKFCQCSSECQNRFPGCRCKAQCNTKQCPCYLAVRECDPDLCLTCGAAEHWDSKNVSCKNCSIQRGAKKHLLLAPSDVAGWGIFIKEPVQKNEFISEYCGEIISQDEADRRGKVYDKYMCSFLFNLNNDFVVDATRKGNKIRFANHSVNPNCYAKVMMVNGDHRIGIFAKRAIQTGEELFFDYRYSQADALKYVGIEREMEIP
T1 sequence (Q15910 whole entry): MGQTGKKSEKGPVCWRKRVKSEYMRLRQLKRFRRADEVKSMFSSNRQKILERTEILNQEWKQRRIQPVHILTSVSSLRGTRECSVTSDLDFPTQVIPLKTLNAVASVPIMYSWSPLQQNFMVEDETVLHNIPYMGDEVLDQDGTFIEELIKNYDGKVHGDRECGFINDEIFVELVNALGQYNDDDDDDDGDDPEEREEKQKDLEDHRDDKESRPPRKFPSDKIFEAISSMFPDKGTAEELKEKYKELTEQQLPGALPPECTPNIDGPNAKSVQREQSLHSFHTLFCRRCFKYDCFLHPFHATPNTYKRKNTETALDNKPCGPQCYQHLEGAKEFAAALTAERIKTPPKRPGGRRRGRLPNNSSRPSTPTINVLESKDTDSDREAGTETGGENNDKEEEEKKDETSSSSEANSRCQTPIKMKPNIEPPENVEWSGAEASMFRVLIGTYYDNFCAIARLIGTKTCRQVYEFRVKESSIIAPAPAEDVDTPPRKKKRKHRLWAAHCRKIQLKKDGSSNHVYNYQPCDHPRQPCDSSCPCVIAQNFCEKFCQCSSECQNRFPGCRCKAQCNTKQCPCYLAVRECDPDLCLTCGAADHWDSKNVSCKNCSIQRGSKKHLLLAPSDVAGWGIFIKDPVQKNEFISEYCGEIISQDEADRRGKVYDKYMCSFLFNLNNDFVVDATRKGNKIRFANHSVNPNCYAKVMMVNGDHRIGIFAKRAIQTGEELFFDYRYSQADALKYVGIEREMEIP
T1 sequence (O75530 2-441 partner): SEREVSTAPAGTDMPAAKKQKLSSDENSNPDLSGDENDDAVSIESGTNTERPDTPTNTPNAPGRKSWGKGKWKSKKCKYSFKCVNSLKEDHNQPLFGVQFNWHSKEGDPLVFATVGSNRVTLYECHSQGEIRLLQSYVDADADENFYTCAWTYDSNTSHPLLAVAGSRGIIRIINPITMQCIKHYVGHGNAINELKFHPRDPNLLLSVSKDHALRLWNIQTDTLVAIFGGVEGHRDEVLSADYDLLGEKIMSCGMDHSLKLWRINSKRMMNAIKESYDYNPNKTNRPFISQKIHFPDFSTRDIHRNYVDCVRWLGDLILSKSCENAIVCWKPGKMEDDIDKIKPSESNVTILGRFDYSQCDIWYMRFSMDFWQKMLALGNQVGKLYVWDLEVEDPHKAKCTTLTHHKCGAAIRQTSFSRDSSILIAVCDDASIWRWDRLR
T1 sequence (Q15022 whole entry partner): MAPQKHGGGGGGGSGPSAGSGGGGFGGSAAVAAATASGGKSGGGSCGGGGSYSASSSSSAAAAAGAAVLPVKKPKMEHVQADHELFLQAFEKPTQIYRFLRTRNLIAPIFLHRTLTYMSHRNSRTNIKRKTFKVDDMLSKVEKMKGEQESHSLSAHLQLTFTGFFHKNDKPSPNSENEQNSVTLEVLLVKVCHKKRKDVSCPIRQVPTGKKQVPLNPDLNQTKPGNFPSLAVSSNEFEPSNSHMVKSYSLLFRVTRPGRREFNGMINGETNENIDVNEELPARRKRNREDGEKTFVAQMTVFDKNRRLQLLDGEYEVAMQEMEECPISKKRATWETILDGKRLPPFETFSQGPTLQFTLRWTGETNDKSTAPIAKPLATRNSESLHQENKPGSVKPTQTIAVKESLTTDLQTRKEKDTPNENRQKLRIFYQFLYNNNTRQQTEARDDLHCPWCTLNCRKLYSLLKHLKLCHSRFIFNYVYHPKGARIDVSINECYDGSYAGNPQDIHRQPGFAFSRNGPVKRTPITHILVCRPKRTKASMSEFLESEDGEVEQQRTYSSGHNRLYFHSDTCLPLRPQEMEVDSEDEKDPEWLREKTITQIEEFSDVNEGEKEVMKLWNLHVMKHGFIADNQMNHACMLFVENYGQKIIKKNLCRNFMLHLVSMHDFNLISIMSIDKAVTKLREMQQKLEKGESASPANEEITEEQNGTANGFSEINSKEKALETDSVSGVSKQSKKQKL
T1 sequence (Q09028 2-425 partner): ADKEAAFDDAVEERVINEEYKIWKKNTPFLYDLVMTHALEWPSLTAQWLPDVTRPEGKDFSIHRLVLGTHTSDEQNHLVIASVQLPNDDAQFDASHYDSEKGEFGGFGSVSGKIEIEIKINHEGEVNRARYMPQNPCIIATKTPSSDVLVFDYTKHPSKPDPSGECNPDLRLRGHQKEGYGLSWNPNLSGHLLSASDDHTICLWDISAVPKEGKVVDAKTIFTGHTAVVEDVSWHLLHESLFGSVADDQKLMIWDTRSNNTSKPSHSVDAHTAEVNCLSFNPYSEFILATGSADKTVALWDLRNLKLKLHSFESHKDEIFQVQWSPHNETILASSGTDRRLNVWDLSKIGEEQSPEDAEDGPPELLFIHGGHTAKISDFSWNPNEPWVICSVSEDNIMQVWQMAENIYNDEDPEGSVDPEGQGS
T1 sequence (Q6ZN18 2-517 partner): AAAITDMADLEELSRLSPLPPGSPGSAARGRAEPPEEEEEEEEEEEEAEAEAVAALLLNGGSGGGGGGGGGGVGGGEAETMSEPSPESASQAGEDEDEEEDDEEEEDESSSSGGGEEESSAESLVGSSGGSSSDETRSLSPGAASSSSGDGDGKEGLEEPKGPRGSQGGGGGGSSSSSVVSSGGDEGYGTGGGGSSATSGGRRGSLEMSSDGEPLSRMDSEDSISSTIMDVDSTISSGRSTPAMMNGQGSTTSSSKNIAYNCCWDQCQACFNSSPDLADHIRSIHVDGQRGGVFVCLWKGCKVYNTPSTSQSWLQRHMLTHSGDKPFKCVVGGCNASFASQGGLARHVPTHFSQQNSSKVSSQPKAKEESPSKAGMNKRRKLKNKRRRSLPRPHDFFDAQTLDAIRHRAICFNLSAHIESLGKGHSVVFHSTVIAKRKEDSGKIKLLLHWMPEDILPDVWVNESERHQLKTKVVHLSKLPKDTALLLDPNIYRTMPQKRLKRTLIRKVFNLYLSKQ
Sequence of EED (hEED) (O75530 2-441): as the sequence (O75530 2-441 partner) above

In the case of `Cc1coc2c1C(=O)C(=O)c1c-2ccc2c(C)cccc12` [Tan I, Tanshinone I], the pKd in experiment [1] was 4.53; in experiment [2], 4.02. In experiment [3], the “in vitro methyltransferase assay with recombinant PRC2 and histone H3.3, western” value is on record as ~ 5 μM.
